Reference: patent US20040116523A1, “Use of c4-c10 acids for preventing gram-negative bacterial infections” (priority 2000, published 2004)

Experiments:
[1] = test system: iagA′-lacZcat fusion in S. typhi strain Ty267; assay: "Biotype 100" plate screen for carbon-based substrates that repress the iagA′-lacZcat fusion (β-galactosidase activity); assay type: cell-based; conditions: "Biotype 100" cupule, amount of substrate not known; favourable LB medium; 36 hours at 37° C.; control cupule without substrate 11 250
Protocol: (§1) Each of the strains described above was cultured at 37° C. on agar or in TCS broth. The P-galactosidase activity was determined using 4-methyl-umbelliferyl-p-D-galactopyranoside sold by the company Sigma, according to the technique of Klarsfeld et al. (Mol. Mibrobiol., 1994, 13, 585-597). The results, expressed in P-galactosidase units (fluorescence per hour and per OD600), represent the mean of the values obtained in at least three independent experiments. The standard deviations were less than 10% of the values presented.
A “Biotype 100”® plate sold by the company BioMerieux is composed of 100 microcupules. Each micro-cupule contains a dehydrated carbon-based substrate, with the exception of the first cupule, which is a control without substrate (the amount of dehydrated substrate per cupule is not given by the manufacturer).
In the context of the present example, these plates were used to search for carbon-based compounds which would block the expression of the invasion genes in Salmonella.
For this, the S. typhi strain Ty267, which is a derivative of the parental strain Ty2 carrying the iagA′-lacZcat transcriptional fusion (Table I), was cultured in TCS broth for 18 hours at 37° C. with shaking (200 rpm).
This culture was then diluted 100-fold in favourable LB medium (0.6 ml of culture for 60 ml of favourable LB), and then this suspension was used immediately to seed the 100 cupules of a “Biotype 100”® plate, in a proportion of 450 μl of suspension per cupule.
After incubation for 36 hours in an incubator at 37° C., the activity of the iagA′-lacZcat fusion in the Ty267 strain was determined for the culture of each cupule.
By comparing the value of the P-galactosidase activity measured in a cupule containing a carbon-based substrate with that of the control cupule without substrate, it was possible to investigate whether a substrate had no effect on, activated or repressed the expression of the iagA′-lacZcat fusion.
The S. typhi strain Ty267 (iagA′-lacZ fusion), suspended in the favourable LB medium, was used to seed the “Biotype 100”® plates.
The β-galactosidase activity expressed by the iagA′-lacZ fusion was determined for the culture in each cupule. With respect to the β-galactosidase activity measured in the control cupule without substrate (11 250 β-galactosidase units), no substrate caused an increase in the expression of the iagA′-lacZ fusion.

[2] = test system: invF′-lacZ fusion (S. typhi strain Ty272); assay: β-galactosidase activity of the invF′-lacZ fusion in favourable LB medium; assay type: cell-based
Protocol: The favourable LB medium (high osmolarity and concentration of Ca^2+ions) was defined as being the standard LB medium modified so as to have a final NaCl concentration of 300 mM and a final Ca concentration of 5 mM.
as §1
For this, the S. typhi strains Ty267, Ty272 and Ty277, which carry the iagA′-lacZ, invF′-lacZ and sipB′-lacZ fusions, respectively, (see Table I), were cultured in the favourable LB or unfavourable LB medium.
The action of these two compounds on the expression of the iagA′-lacZ, invF′-lacZ and sipB′-lacZ fusions was studied by measuring the β-galactosidase activity expressed by these fusions as a function of the time of culturing (samples removed every two hours).

S. typhi strain Ty2 = assay: Mobility by the U-tube culturing technique; assay type: cell-based; conditions: U tube supplemented with 5 mM
Protocol: The mobility of each strain was studied using the U-tube culturing technique (Popoff and Le Minor, Guide pour la preparation des serum anti-Salmonella (Guide for preparing salmonella antisera], 1997). When necessary, the culture media were supplemented with chloramphenicol (Cm) at 15 μg/ml.

S. typhimurium C52 = assay: Splenic colonization of C57Bl/6 mice infected orally with S. typhimurium C52; assay type: in vivo
Protocol: The 5-6-week-old female C57Bl/6 mice used in the context of this experiment originated from the IFFA-CREDO breeding centre (LArbresle, France).
(§2) They were infected orally in the following way. The Salmonella strains were cultured in TCS broth for 18 hours at 37° C. with shaking (200 rpm). This culture was then adjusted to […] (in the stationary growth phase, 1 OD600 =1.5 ×10^9 bacteria/ml), and then the number of viable bacteria was controlled by counting on TCS agar.
(§3) On the day of infection (DO), the drinking-water bottles of the mice were replaced with bottles containing 100 ml of drinking water to which the required number of bacteria had been added.
(§4) After infection for 24 hours ([…]), the bottles containing the contaminated drinking water were replaced with bottles containing uncontaminated drinking water.
(§5) Seven days after infection (D+7), the spleens of the mice infected in this way were removed and homogenized separately in 1 ml of physiological saline containing 0.7% of NaCl.
(§6) The number of viable bacteria per spleen was determined by plating out dilutions of the homogenate, onto TCS agar.
The effect of the composition of the drinking water on the splenic colonization by Salmonella was estimated using the Student's t test.
The S. typhimurium strain C52 was used to infect C57Bl/6 mice orally.
On this figure, the number of viable bacteria is given as the mean (log10) of the values ± the standard deviation. […]

S. enteritidis LA5 = assay: Splenic colonization of C57Bl/6 mice infected orally with S. enteritidis LA5; assay type: in vivo; conditions: 50 mM in drinking water pH 7.2-7.3; 10^7 bacteria per animal orally; distilled water 7.5 ± 0.3
Protocol: as §2, §3, §4, §5, §6
The S. dublin strain 5917 (Coynault & Norel, Microb. Pathog., 1999, 26, 299-305) and S. enteritidis strain LAS (Thorns et al., Microb. Pathog., 1996, 20, 235-246) were used to infect C57B1/6 mice orally at the dose of 10^7 bacteria per animal.

Salmonellae = assay: Bactericidal or bacteriostatic effect on the Salmonellae at neutral pH; assay type: cell-based, Salmonella
[3] = test system: iagA′-lacZ fusion (S. typhi strain Ty267); assay: β-galactosidase activity of the iagA′-lacZ fusion in favourable LB medium; assay type: cell-based
S. typhi = conditions: 1.25 g/l; cited from earlier work
Vibrio cholerae = conditions: 1.25 g/l; cited from earlier work
Shigella sonnei = conditions: 1.25 g/l; cited from earlier work
[4] = test system: enteropathogenic and enterotoxigenic E. coli; conditions: 1.25 g/l; cited from earlier work
[5] = test system: Gram-positive or Gram-negative bacteria; conditions: 7.8 mM, in vitro; cited from earlier work
[6] = concentration greater than or equal to 2.5 mM, favourable LB medium

CCCCCCCC(=O)[O-].[Na+] [sodium caprylate]
β-galactosidase activity expressed by the iagA′-lacZ fusion in the cupule [1]: 47 β-galactosidase units
β-galactosidase activity expressed by the invF′-lacZ fusion as % of that in favourable LB medium without the substance ([2]; 1 mM in favourable LB medium): ~20%
expression of the invF gene (invF′-lacZ fusion) [2, 6]: very strongly represses
mobility of the Ty2 strain (S. typhi strain Ty2): same mobility
Number of viable bacteria in the spleen (mean log10) (S. typhimurium C52; 5 mM in drinking water, infectious dose 5 × 10^7 bacteria): 6.9 ± 0.5 log10
Number of viable bacteria in the spleen (mean log10) (S. typhimurium C52; 5 mM in drinking water, infectious dose 10^7 bacteria): 6.8 ± 0.2 log10
Number of viable bacteria in the spleen (mean log10) (S. typhimurium C52; 10 mM in drinking water, infectious dose 5 × 10^7 bacteria): 6.5 ± 0.4 log10
Number of viable bacteria in the spleen (mean log10) (S. typhimurium C52; 10 mM in drinking water, infectious dose 10^7 bacteria): 6.5 ± 1.4 log10
factor of decrease of the bacterial load in the spleen (S. typhimurium C52; 50 mM in drinking water from two days before infection, 5 × 10^7 bacteria, seventh day of infection): approximately 1 000
Number of viable bacteria in the spleen (mean log10) (S. typhimurium C52; 50 mM in drinking water, infectious dose 10^7 bacteria, distilled water 7.2 ± 0.3): 2.3 ± 0.4 log10
protective effect (in words) (S. typhimurium C52; 5 or 10 mM in the drinking water, whatever the infectious dose): no longer has a significant protective effect
Number of viable bacteria in the spleen (mean in log10) (S. enteritidis LA5): 3.7 ± 0.4 log10
bactericidal or bacteriostatic effect on the Salmonellae (Salmonellae): none of these compounds has any significant bactericidal or bacteriostatic effect
β-galactosidase activity expressed by the iagA′-lacZ fusion as % of that in favourable LB medium without the substance ([3]; 1 mM in favourable LB medium): ~20%
expression of the iagA gene (iagA′-lacZ fusion) [3, 6]: very strongly represses
bactericidal activity in vitro on S. typhi (S. typhi): no bactericidal activity
bactericidal activity in vitro on Vibrio cholerae (Vibrio cholerae): no bactericidal activity
bactericidal activity in vitro on Shigella sonnei (Shigella sonnei): no bactericidal activity
bactericidal activity in vitro on enteropathogenic and enterotoxigenic E. coli [4]: no bactericidal activity
bacteriostatic or bactericidal effect on Gram-positive or Gram-negative bacteria [5]: no bacteriostatic or bactericidal effect
